In ChEMBL document CHEMBL1140755, “Interaction of aliphatic cap group in inhibition of histone deacetylases by cyclic tetrapeptides” (Bioorg Med Chem, 2008):
Non-standard residues stand in square brackets, D forms with d. Residues, ends and D or L forms follow the SMILES beside them. Ahp(7-SS(2-pyridyl)) = N[C@@H](CCCCCSSc1ccccn1)C(=O)O; Aib = CC(C)(N)C(=O)O

Assays:
[1] = molecular target: Histone deacetylase 4 (Homo sapiens, UniProt P56524); test: Inhibition of HDAC4 expressed in 293T cells; assay type: cell-based
Histone deacetylase 4, sequence (P56524 whole entry): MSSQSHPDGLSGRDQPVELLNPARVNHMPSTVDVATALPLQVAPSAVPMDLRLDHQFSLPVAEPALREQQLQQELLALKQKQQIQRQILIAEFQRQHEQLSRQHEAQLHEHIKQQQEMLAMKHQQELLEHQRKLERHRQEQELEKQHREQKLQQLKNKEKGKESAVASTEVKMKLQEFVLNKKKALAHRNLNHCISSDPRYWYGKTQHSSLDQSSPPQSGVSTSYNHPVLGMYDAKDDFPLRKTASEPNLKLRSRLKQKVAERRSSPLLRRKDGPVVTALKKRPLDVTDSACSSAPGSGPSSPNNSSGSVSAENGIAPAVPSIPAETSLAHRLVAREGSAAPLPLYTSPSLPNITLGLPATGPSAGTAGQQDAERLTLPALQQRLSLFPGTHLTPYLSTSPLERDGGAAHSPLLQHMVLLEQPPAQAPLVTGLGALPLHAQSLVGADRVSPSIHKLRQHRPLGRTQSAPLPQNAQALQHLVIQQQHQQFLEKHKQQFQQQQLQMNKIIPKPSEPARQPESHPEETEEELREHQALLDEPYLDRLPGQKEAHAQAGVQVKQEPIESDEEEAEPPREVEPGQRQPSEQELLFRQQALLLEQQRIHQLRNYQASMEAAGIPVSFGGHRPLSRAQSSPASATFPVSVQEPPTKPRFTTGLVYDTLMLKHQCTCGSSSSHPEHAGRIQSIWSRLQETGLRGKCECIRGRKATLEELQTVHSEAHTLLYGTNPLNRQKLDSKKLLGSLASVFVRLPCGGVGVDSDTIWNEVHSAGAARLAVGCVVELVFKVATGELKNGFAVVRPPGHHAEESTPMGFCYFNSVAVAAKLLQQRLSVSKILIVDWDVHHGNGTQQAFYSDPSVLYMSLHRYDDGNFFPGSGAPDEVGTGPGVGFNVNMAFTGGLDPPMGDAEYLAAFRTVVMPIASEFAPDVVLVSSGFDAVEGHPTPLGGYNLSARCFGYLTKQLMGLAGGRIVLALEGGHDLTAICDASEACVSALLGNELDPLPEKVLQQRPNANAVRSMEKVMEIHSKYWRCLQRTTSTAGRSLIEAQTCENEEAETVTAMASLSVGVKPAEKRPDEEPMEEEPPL

[2] = molecular target: T1, Protein deacetylase HDAC6 (Homo sapiens, UniProt Q9UBN7); test: Inhibition of HDAC6 expressed in 293T cells; assay type: cell-based
T1 sequence (Q9UBN7 whole entry): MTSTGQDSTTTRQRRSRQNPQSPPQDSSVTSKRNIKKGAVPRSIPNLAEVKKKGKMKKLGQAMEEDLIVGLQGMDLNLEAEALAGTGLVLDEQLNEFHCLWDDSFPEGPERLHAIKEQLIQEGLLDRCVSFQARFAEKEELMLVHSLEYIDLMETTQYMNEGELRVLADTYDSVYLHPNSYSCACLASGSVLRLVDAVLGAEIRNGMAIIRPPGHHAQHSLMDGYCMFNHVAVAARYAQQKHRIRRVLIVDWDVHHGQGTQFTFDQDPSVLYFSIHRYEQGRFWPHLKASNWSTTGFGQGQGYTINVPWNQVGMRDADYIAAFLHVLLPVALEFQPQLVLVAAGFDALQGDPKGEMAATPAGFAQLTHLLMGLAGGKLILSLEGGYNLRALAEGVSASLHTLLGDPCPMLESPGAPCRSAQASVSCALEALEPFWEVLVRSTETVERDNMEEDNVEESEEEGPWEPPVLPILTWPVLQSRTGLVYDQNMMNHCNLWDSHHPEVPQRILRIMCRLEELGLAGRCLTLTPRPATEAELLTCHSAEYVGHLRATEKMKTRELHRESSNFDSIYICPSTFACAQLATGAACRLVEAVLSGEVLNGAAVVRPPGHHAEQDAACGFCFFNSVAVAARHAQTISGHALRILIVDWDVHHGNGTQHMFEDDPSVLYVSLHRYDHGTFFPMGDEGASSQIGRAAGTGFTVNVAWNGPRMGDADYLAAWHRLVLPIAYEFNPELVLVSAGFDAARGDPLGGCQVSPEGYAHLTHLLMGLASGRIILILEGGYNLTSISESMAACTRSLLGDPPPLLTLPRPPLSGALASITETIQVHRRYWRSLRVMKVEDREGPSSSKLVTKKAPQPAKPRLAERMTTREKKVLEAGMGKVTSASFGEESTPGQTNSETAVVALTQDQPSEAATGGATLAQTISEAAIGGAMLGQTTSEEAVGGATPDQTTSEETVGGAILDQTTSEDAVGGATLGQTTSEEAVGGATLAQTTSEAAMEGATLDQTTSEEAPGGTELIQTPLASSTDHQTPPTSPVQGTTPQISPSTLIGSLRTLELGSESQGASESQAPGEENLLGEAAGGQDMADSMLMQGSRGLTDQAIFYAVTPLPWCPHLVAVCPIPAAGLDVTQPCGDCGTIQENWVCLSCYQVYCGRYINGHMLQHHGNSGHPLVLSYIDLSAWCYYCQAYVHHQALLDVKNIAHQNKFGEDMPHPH

[3] = molecular target: Histone deacetylase 1 (Homo sapiens, UniProt Q13547); test: Inhibition of HDAC1 expressed in 293T cells; assay type: cell-based
Histone deacetylase 1, sequence (Q13547 whole entry): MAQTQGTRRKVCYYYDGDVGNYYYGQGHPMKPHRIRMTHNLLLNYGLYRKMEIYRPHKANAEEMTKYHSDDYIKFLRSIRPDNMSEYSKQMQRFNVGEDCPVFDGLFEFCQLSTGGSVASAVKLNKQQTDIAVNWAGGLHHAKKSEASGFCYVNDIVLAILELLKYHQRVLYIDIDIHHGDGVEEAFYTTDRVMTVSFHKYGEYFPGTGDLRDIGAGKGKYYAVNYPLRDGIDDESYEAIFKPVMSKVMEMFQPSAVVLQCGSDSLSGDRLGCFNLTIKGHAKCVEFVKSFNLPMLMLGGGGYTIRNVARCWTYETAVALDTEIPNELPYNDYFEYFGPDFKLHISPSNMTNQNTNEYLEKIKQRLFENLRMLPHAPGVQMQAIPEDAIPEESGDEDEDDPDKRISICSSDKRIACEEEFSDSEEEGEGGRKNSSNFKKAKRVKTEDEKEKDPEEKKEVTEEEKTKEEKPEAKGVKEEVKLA

[4] = Selectivity of IC50 for HDAC6 to IC50 for HDAC1

| IC50 [1] | IC50 [2] | IC50 [3] | Ratio IC50 [4] | SMILES |
| --- | --- | --- | --- | --- |
| 23 nM | 310 nM | 38 nM |  | CC[C@H](C)[C@@H]1NC(=O)C(C)(C)NC(=O)[C@H](CCCCCSSc2ccccn2)NC(=O)[C@H]2CCCN2C1=O |
| 20 nM | 4900 nM | 35 nM | 140 | O=C1N[C@@H]2CCCCCCCCCCCC[C@H](NC2=O)C(=O)N2CCC[C@@H]2C(=O)N[C@H]1CCCCCSSc1ccccn1 |
| 18 nM | 404 nM | 39 nM | 10.3 | CC1(C)NC(=O)[C@H](CCCCCSSc2ccccn2)NC(=O)[C@H]2CCCN2C(=O)[C@H](Cc2ccccc2)NC1=O (cyclo([Aib]F[dP][Ahp(7-SS(2-pyridyl))])) |
| 52 nM | 430 nM | 94 nM |  | C[C@@H]1NC(=O)C(C)(C)NC(=O)[C@H](CCCCCSSc2ccccn2)NC(=O)[C@H]2CCCN2C1=O (cyclo(A[dP][Ahp(7-SS(2-pyridyl))][Aib])) |
| 24 nM | 280 nM | 38 nM |  | CCCC[C@@H]1NC(=O)C(C)(C)NC(=O)[C@H](CCCCCSSc2ccccn2)NC(=O)[C@H]2CCCN2C1=O |
| 33 nM | 230 nM | 58 nM |  | CC(C)C[C@@H]1NC(=O)C(C)(C)NC(=O)[C@H](CCCCCSSc2ccccn2)NC(=O)[C@H]2CCCN2C1=O |
